Where two headings read alike, the source gives them in different places.
How the values were obtained:
ShHTL7 [1] = target: T1, ShHTL7 (Striga hermonthica, UniProt A0A0M3PNA2); experiment: biochemical; format: binding
Protocol: We used a sensitive, high-throughput Surface plasmon resonance (SPR) method to examine the binding affinities of the 51 candidates to the recombinant ShHTL7 protein, which was immobilized on the CM5 sensor chip. rac-GR24 was used as a positive control.
The interactions of small molecules with recombinant ShHTL7 were evaluated using the Biacore T200 system (GE Healthcare, USA) at 25 °C[47]. The purified ShHTL7 protein was immobilized on a CM5 sensor chip using the standard amine coupling procedure. […] PBS-P (10 mM phosphate buffer, 2.7 mM KCl, 137 mM NaCl, 0.05% Surfactant P20) containing 0.5% DMSO was used as the running buffer. For the screening experiments, candidates with different structures at 50 μM in the running buffer were injected individually at a flow rate of 30 μL min^−1. For binding affinity studies, compounds with different concentrations in running buffer were used. During the experiments, both the contact and dissociation times were set as 1 min. Data analysis was performed using the Biacore Evaluation Software (T200 Version 2.0). The affinity values (KD) were obtained by the kinetics analysis or the steady-state affinity method.

ShHTL7 [2] = target: T1, ShHTL7; experiment: ShHTL7-hydrolysis reaction analysis (HPLC); format: biochemical; details: authors' response to reviewer
Protocol: Compounds 4a, (R)- and (S)-4a, 4g-i, and rac-GR24 were dissolved in DMSO and prepared as stock solution ([…]) just before use. A 200 μL of the reaction solution consisting of PBS buffer (pH 7.3), 10 μM samples, and 10 μg recombinant ShHTL7 or its mutants was incubated at 30 °C for 30 min; with the reaction solution (200 μL) containing PBS buffer (pH 7.3) and 10 μM samples as the blank control[40],[52]. Subsequently, the reaction was terminated by adding 200 μL of methanol, and then the reaction mixture was shaken for 10 s and centrifuged at 5310 × g for 60 s. The supernatant was filtered and the remaining amount of samples was analyzed by HPLC. The relative percentages of hydrolysis were obtained by using the amount of compounds in blank control as reference.
Supplementary Fig. 11. Hydrolysis of 4a, (R)-4a, (S)-4a, 4g-i, and rac-GR24 by ShHTL7 at 30 °C for 30 min. The remaining amounts of compounds in recombinant ShHTL7 protein and buffer solution were determined by HPLC analysis. The relative percentages of hydrolysis were calculated by using the amount of compounds in the buffer as reference. The error bar indicates SD (n = 3 biologically independent experiments).
(1 picture or pasted object on this page, not shown here)

P. aegyptiaca seeds = experiment: P. aegyptiaca seed germination assay; format: in vivo, Phelipanche aegyptiaca; details: for P. aegyptiaca germination(%): Supplementary Table 1, compounds tested at 10 μM, means ± SD, n = 3
Protocol: P. aegyptiaca seeds were harvested from Xinjiang province, China in 2017. The seeds were surface sterilized using 1% NaClO solution for 2 min and then washed with distilled water six times. For seed germination assay, about 20 pieces of glass fiber-filter paper discs (15 mm diameter, Whatman GF/B) were placed separately on two layers of filter papers (9 cm diameter, Whatman) in a Petri dish. Five milliliters of distilled water was added to each Petri dish to wet the papers. Approximately 40–90 sterilized seeds were spread onto each glass fiber-filter paper disc. After the seeds were conditioned in the dark at 25 °C for 4 days[48], glass fiber-filter paper discs were blotted dry on filter papers (9 cm) and transferred to the wells of 24-well cell culture plates. The testing compounds were dissolved in acetone and diluted with H2O (VH2O/Vacetone = 999/1) just before use[49]. rac-GR24 and 1‰ acetone solution were used as positive and negative controls, respectively. One hundred microliters of the test solution was added to each well of the plates, and all treatments were performed in three biological repeats. The plates were sealed and incubated in the dark at 25 °C for a week. The experiments were performed at least three times. The germinated seeds were observed by using an electronic magnifier at ×20 magnification.

ShHTL7 [3] = target: T1, ShHTL7; experiment: Competitive inhibition of ShHTL7 with Yoshimulactone Green (YLG) as substrate; format: biochemical
Protocol: Based on the structural feature of the lead compound 2h, we selected three regions to perform further modification (Supplementary Fig. 6), to try to further improve bioactivity. Insertion of a carbonyl group between the bicyclo[2.2.1]hept-5-en-2-yl group and the piperazine ring was detrimental to binding affinity (Supplementary Fig. 6, region A). Removal of an oxygen atom in region B was found unfavorable to binding affinity as well. Therefore, we focused on modifying the benzene ring (region C) for 2h. A series of compounds with different groups at region C was synthesized (Supplementary Scheme 1). […] As SPR just measures the binding ability, another independent assay by using Yoshimulactone Green (YLG) as the fluorescent substrate was performed to determine the half-maximal inhibitory concentration (IC50) of these compounds against ShHTL7[22].
The excitation and emission wavelengths of YLG are 480 and 520 nm, respectively. We used a fluorescence spectrophotometer (CARY Eclipse) to detect the fluorescence intensity change of YLG during the enzymatic hydrolysis assay process. All the testing compounds and YLG were dissolved in DMSO and prepared as stock solutions just before use. […] The changes of fluorescence at 520 nm of each well were recorded every 1 min for 30 min. Using the reaction mixture without adding enzyme and tested compounds as the background control. After subtracting the background hydrolysis, a linear fluorescence increase in 8 min was used for further inspection. The IC50 values were determined via fitting relative inhibition percentages with the varying concentrations of compounds in Microsoft Excel.

[4] = recombinant ShHTL7 immobilized on CM5 chip, 25 °C, read-out: KD (SPR)
[5] = IC50 (Supplementary Table 1), YLG used as the substrate, means ± SD, n = 3
[6] = YLG used as the substrate, means ± SD, n = 3, read-out: IC50 (Supplementary Table 1)
[7] = IC50, competitive ShHTL7 inhibition (YLG), source data average, wild-type ShHTL7, average of 3, source data of Fig. 2a,b, Supplementary Figs. 8a, 9a, 20b

T1 sequence (A0A0M3PNA2 entry or part of it): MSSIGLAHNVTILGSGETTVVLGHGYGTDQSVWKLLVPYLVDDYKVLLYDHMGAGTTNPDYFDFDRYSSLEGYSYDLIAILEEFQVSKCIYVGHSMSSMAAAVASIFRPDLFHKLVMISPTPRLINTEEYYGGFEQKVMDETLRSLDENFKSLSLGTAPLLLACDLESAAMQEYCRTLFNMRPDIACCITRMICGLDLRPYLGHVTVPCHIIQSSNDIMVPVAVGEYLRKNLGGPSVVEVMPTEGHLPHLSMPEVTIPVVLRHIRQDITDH

`O=C(c1ccco1)N1CCN(CC2CC3C=CC2C3)CC1` (stereo not drawn) [2a] gave a Kd (ShHTL7 [1]; [4]) of 12.8 ± 0.6 µM.
With `O=C(c1cccs1)N1CCN(CC2CC=CCC2)CC1` (stereo not drawn) [2b] the Kd (ShHTL7 [1]) was 10.5 ± 0.67 µM.
With `COc1cc(C(=O)N2CCN(CC3CC4C=CC3C4)CC2)cc(OC)c1OC` (stereo not drawn) [2c] the Kd (ShHTL7 [1]) was 6.66 ± 0.2 µM.
`O=C(C(c1ccccc1)c1ccccc1)N1CCN(CC2CC3C=CC2C3)CC1` (stereo not drawn) [2d] was tested, and the Kd (ShHTL7 [1]) was 5.22 ± 0.66 µM.
In the case of `O=C(c1ccc([N+](=O)[O-])cc1)N1CCN(CC2CC3C=CC2C3)CC1` (stereo not drawn) [2e], the Kd (ShHTL7 [1]) is reported as 8.77 ± 0.11 µM and the “hydrolysis by ShHTL7” value (ShHTL7 [2]) is reported as “could not be hydrolyzed by ShHTL7”.
With `Cc1cccc(OCC(=O)N2CCN(CC3CC4C=CC3C4)CC2)c1` (stereo not drawn) [2f] the “germination of P. aegyptiaca seeds, source data average” value (P. aegyptiaca seeds; 10 μM, Fig. 1d source data, average of 3) was 18.7364%, the “P. aegyptiaca germination(%)” value (P. aegyptiaca seeds) was 20.5% and the IC50 (ShHTL7 [3]; [5]) was 10.7 ± 0.96 µM. It also gave a Kd (ShHTL7 [1]) of 11.2 ± 0.16 µM.
For `Cc1ccc(OCC(=O)N2CCN(C(=O)C3CC4C=CC3C4)CC2)cc1` (stereo not drawn) [3a], the “P. aegyptiaca germination(%)” value (P. aegyptiaca seeds) was 19.4% and the IC50 (ShHTL7 [3]; [6]) was 35.6 ± 3.84 µM.
With `Cc1ccc(CC(=O)N2CCN(CC3CC4C=CC3C4)CC2)cc1` (stereo not drawn) [3b] the “P. aegyptiaca germination(%)” value (P. aegyptiaca seeds) was 8.9% and the IC50 (ShHTL7 [3]; [6]) was 23.2 ± 1.59 µM.
`O=C(COc1ccc2ccccc2c1Br)N1CCN(CC2CC3C=CC2C3)CC1` (stereo not drawn) [3c] was tested, and the “P. aegyptiaca germination(%)” value (P. aegyptiaca seeds) was 17.1% and the IC50 (ShHTL7 [3]; [6]) was 6.12 ± 0.34 µM.
For `Cc1cc(F)ccc1OCC(=O)N1CCN(CC2CC3C=CC2C3)CC1` (stereo not drawn) [3d], the “P. aegyptiaca germination(%)” value (P. aegyptiaca seeds) was 23.1%, the IC50 (ShHTL7 [3]; [6]) was 10.7 ± 2.93 µM and the Kd (ShHTL7 [1]; [4]) was 1.86 µM.
`Cc1cc(Cl)ccc1OCC(=O)N1CCN(CC2CC3C=CC2C3)CC1` (stereo not drawn) [3e] was tested, and the “P. aegyptiaca germination(%)” value (P. aegyptiaca seeds) was 7.0%, the IC50 (ShHTL7 [3]; [6]) was 8.28 ± 1.12 µM and the Kd (ShHTL7 [1]; [4]) was 0.65 µM.
With `Cc1cc(Br)ccc1OCC(=O)N1CCN(CC2CC3C=CC2C3)CC1` (stereo not drawn) [3f] the “P. aegyptiaca germination(%)” value (P. aegyptiaca seeds) was 8.3%, the IC50 (ShHTL7 [3]; [5]) was 7.45 ± 1.03 µM and the IC50 (ShHTL7 [3]; [7]) was 6.11 µM. The Kd (ShHTL7 [1]) was 0.18 µM.
`O=C(COc1c(F)c(F)c(F)c(F)c1F)N1CCN(CC2CC3C=CC2C3)CC1` (stereo not drawn) [3g] was tested, and the “P. aegyptiaca germination(%)” value (P. aegyptiaca seeds) was 5.7%, the IC50 (ShHTL7 [3]; [5]) was 0.23 ± 0.03 µM and the IC50 (ShHTL7 [3]; [7]) was 2.08 µM. The Kd (ShHTL7 [1]) was 0.47 µM.
In the case of `Cc1cc([N+](=O)[O-])ccc1OCC(=O)N1CCN(CC2CC3C=CC2C3)CC1` (stereo not drawn) [3h], the “P. aegyptiaca germination(%)” value (P. aegyptiaca seeds) is reported as 22.0% and the IC50 (ShHTL7 [3]; [6]) is reported as 10 ± 0.59 µM.
In the case of `O=C(COc1ccc([N+](=O)[O-])cc1Cl)N1CCN(CC2CC3C=CC2C3)CC1` (stereo not drawn) [3i], the “P. aegyptiaca germination(%)” value (P. aegyptiaca seeds) is reported as 33.5% and the IC50 (ShHTL7 [3]; [6]) is reported as 11.6 ± 0.61 µM.
`O=C(COc1ccc(Cl)cc1Cl)N1CCN(CC2CC3C=CC2C3)CC1` (stereo not drawn) [3j] was tested, and the “P. aegyptiaca germination(%)” value (P. aegyptiaca seeds) was 54.7% and the IC50 (ShHTL7 [3]; [6]) was 9.22 ± 0.35 µM.

Source: publication PMC9271048, “Probing strigolactone perception mechanisms with rationally designed small-molecule agonists stimulating germination of root parasitic weeds” (Nature Communications, 2022)
